# Measurements taken from publication PMC5218480 (PLoS ONE, 2017).
# System: MV-4-11 cells
# Test: Gene expression microarray analysis (Affymetrix PrimeView) and GSEA
# Format: cell-based, human
# Parameters: RFU PODN (11730768_x_at) / Fold change /veh PODN (11730768_x_at) / RFU LINC00158 (11744669_a_at) / Fold change /veh LINC00158 (11744669_a_at) / RFU DUSP10 (11751237_a_at) / Fold change /veh DUSP10 (11751237_a_at) / RFU ID3 (11757404_x_at) / Fold change /veh ID3 (11757404_x_at) / RFU PLEKHG5 (11737974_s_at) / Fold change /veh PLEKHG5 (11737974_s_at) / RFU LRRC4B (11730491_at) / Fold change /veh LRRC4B (11730491_at) / RFU GIMAP4 (11747438_a_at) / Fold change /veh GIMAP4 (11747438_a_at) / RFU KRT8 (11758183_x_at) / Fold change /veh KRT8 (11758183_x_at) / RFU CNN1 (11734310_a_at) / Fold change /veh CNN1 (11734310_a_at) / RFU VPS37D (11726825_at) / Fold change /veh VPS37D (11726825_at) / RFU C10orf10 (11716522_x_at) / Fold change /veh C10orf10 (11716522_x_at) / RFU KIR2DL2 /// KIR2DL4 /// KIR2DL5A /// KIR2DL5B /// KIR2DS1 /// KIR2DS2 /// KIR2DS3 /// KIR2DS4 /// KIR3DL3 /// KIR3DL3 /// KIR3DS1 (11738374_at) / Fold change /veh KIR2DL2 /// KIR2DL4 /// KIR2DL5A /// KIR2DL5B /// KIR2DS1 /// KIR2DS2 /// KIR2DS3 /// KIR2DS4 /// KIR3DL3 /// KIR3DL3 /// KIR3DS1 (11738374_at) / RFU C1QL1 (11718748_at) / Fold change /veh C1QL1 (11718748_at) / RFU TMPRSS4 (11747572_a_at) / Fold change /veh TMPRSS4 (11747572_a_at) / RFU HAMP (11756126_x_at) / Fold change /veh HAMP (11756126_x_at) / RFU RNFT2 (11725882_a_at) / Fold change /veh RNFT2 (11725882_a_at) / RFU NR4A2 (11747474_a_at) / Fold change /veh NR4A2 (11747474_a_at) / RFU ABCC12 (11746883_a_at) / Fold change /veh ABCC12 (11746883_a_at) / RFU TMEM136 (11760407_x_at) / Fold change /veh TMEM136 (11760407_x_at) / RFU CLDN22 /// WWC2 (11732394_at) / Fold change /veh CLDN22 /// WWC2 (11732394_at) / RFU HLA-DPB1 (11760878_x_at) / Fold change /veh HLA-DPB1 (11760878_x_at) / RFU SPINT1 (11716480_a_at) / Fold change /veh SPINT1 (11716480_a_at) / RFU GAP43 (11754022_s_at) / Fold change /veh GAP43 (11754022_s_at) / RFU A4GNT (11735810_at) / Fold change /veh A4GNT (11735810_at) / RFU PRB3 (11715151_x_at) / Fold change /veh PRB3 (11715151_x_at) / RFU TUBB4B (11761932_at) / Fold change /veh TUBB4B (11761932_at) / RFU CAPN14 (11732068_a_at) / Fold change /veh CAPN14 (11732068_a_at) / RFU TMCC2 (11721928_a_at) / Fold change /veh TMCC2 (11721928_a_at) / RFU IRGQ (11745062_a_at) / Fold change /veh IRGQ (11745062_a_at) / RFU FAM174B (11720279_a_at) / Fold change /veh FAM174B (11720279_a_at) / RFU TMPRSS4 (11748680_a_at) / Fold change /veh TMPRSS4 (11748680_a_at) / RFU FAM212B (11763350_a_at) / Fold change /veh FAM212B (11763350_a_at) / RFU PLEKHG5 (11743358_a_at) / Fold change /veh PLEKHG5 (11743358_a_at) / RFU ZSCAN30 (11745921_a_at) / Fold change /veh ZSCAN30 (11745921_a_at) / RFU CMKLR1 (11741424_a_at) / Fold change /veh CMKLR1 (11741424_a_at) / RFU LOC101060620 /// MAPK8IP1 (11723275_at) / Fold change /veh LOC101060620 /// MAPK8IP1 (11723275_at) / RFU SPTSSB (11747773_x_at) / Fold change /veh SPTSSB (11747773_x_at) / RFU PRSS12 (11739890_at) / Fold change /veh PRSS12 (11739890_at) / RFU BIN1 (11741810_x_at) / Fold change /veh BIN1 (11741810_x_at) / RFU WNT11 (11732464_a_at) / Fold change /veh WNT11 (11732464_a_at) / RFU C10orf10 (11716521_a_at) / Fold change /veh C10orf10 (11716521_a_at) / RFU C5orf56 (11738089_at) / Fold change /veh C5orf56 (11738089_at) / RFU CYB561 (11721691_x_at) / Fold change /veh CYB561 (11721691_x_at) / RFU ANKRD19P (11752326_a_at) / Fold change /veh ANKRD19P (11752326_a_at) / RFU OR2T12 /// OR2T33 /// OR2T8 (11738714_s_at) / Fold change /veh OR2T12 /// OR2T33 /// OR2T8 (11738714_s_at) / RFU VCAN (11748164_a_at) / Fold change /veh VCAN (11748164_a_at) / RFU JSRP1 (11732532_at) / Fold change /veh JSRP1 (11732532_at) / RFU KRTAP10-11 (11738290_x_at) / Fold change /veh KRTAP10-11 (11738290_x_at) / RFU MYO3A (11730013_a_at) / Fold change /veh MYO3A (11730013_a_at) / RFU EBF3 (11725865_a_at) / Fold change /veh EBF3 (11725865_a_at) / RFU CAMK2N1 (11719241_x_at) / Fold change /veh CAMK2N1 (11719241_x_at) / RFU C5orf56 (11738088_a_at) / Fold change /veh C5orf56 (11738088_a_at) / RFU OLFML3 (11715873_a_at) / Fold change /veh OLFML3 (11715873_a_at) / RFU LOC100653217 /// NTM (11731650_a_at) / Fold change /veh LOC100653217 /// NTM (11731650_a_at) / RFU MAPK11 (11762145_a_at) / Fold change /veh MAPK11 (11762145_a_at) / RFU FIZ1 (11724087_x_at) / Fold change /veh FIZ1 (11724087_x_at) / RFU OASL (11726364_x_at) / Fold change /veh OASL (11726364_x_at) / RFU SOX15 (11748057_x_at) / Fold change /veh SOX15 (11748057_x_at) / RFU CD79A (11719716_a_at) / Fold change /veh CD79A (11719716_a_at) / RFU HIST1H1D (11736915_at) / Fold change /veh HIST1H1D (11736915_at) / RFU CASKIN2 (11723855_a_at) / Fold change /veh CASKIN2 (11723855_a_at) / RFU LOC730098 (11760151_x_at) / Fold change /veh LOC730098 (11760151_x_at) / RFU OR4N2 (11742367_at) / Fold change /veh OR4N2 (11742367_at) / RFU PRRT2 (11749266_a_at) / Fold change /veh PRRT2 (11749266_a_at) / RFU SNX32 (11753110_a_at) / Fold change /veh SNX32 (11753110_a_at) / RFU CDHR5 (11726645_a_at) / Fold change /veh CDHR5 (11726645_a_at) / RFU RCAN1 (11760418_a_at) / Fold change /veh RCAN1 (11760418_a_at) / RFU FAM167A (11723789_a_at) / Fold change /veh FAM167A (11723789_a_at) / RFU FAM26E (11764081_at) / Fold change /veh FAM26E (11764081_at) / RFU ISYNA1 (11749810_s_at) / Fold change /veh ISYNA1 (11749810_s_at) / RFU ACY1 (11761880_at) / Fold change /veh ACY1 (11761880_at) / RFU 11764098_at / Fold change /veh 11764098_at / RFU SAMD14 (11745864_x_at) / Fold change /veh SAMD14 (11745864_x_at) / RFU NPB (11741838_a_at) / Fold change /veh NPB (11741838_a_at) / RFU TMPRSS6 (11731388_a_at) / Fold change /veh TMPRSS6 (11731388_a_at) / RFU KRTAP10-2 (11738614_at) / Fold change /veh KRTAP10-2 (11738614_at) / RFU ARHGAP8 /// PRR5-ARHGAP8 (11727945_x_at) / Fold change /veh ARHGAP8 /// PRR5-ARHGAP8 (11727945_x_at) / RFU KRTAP5-7 /// NADSYN1 (11734609_at) / Fold change /veh KRTAP5-7 /// NADSYN1 (11734609_at) / RFU RASL12 (11751679_a_at) / Fold change /veh RASL12 (11751679_a_at) / RFU CDKN2B (11736163_a_at) / Fold change /veh CDKN2B (11736163_a_at) / RFU PRF1 (11729649_at) / Fold change /veh PRF1 (11729649_at) / RFU, ZNF638 /// ZNF638-IT1 / Fold change vs veh, ZNF638 /// ZNF638-IT1 / RFU, PANK3 / Fold change vs veh, PANK3 / RFU, SH3YL1 / Fold change vs veh, SH3YL1 / RFU, ZEB2 / Fold change vs veh, ZEB2 / RFU, NRIP1 / Fold change vs veh, NRIP1 / RFU, PTTG1IP / Fold change vs veh, PTTG1IP / RFU, CAPN2 / Fold change vs veh, CAPN2 / RFU, MED14 / Fold change vs veh, MED14 / RFU, SNORA58 / Fold change vs veh, SNORA58 / RFU, C1orf63 / Fold change vs veh, C1orf63 / RFU, LRRFIP1 / Fold change vs veh, LRRFIP1 / RFU, NDUFAF7 / Fold change vs veh, NDUFAF7 / RFU, SLC12A2 / Fold change vs veh, SLC12A2 / RFU, IBTK / Fold change vs veh, IBTK / RFU, ESF1 / Fold change vs veh, ESF1 / Fold change vs veh, TMEM50B / RFU, TAOK1 / Fold change vs veh, TAOK1 / RFU, ACBD3 / Fold change vs veh, ACBD3 / RFU, TMA16 / Fold change vs veh, TMA16 / RFU, RWDD3 / Fold change vs veh, RWDD3 / RFU, BCAT1 / Fold change vs veh, BCAT1 / RFU, EDEM3 / Fold change vs veh, EDEM3 / RFU, TMEM33 / Fold change vs veh, TMEM33 / RFU, WDR75 / Fold change vs veh, WDR75 / RFU, AHCTF1 / Fold change vs veh, AHCTF1 / RFU, TFRC / Fold change vs veh, TFRC / RFU, ZDHHC17 / Fold change vs veh, ZDHHC17 / RFU, NOM1 / Fold change vs veh, NOM1 / RFU, ARL8B / Fold change vs veh, ARL8B / RFU, ZBTB11 / Fold change vs veh, ZBTB11 / RFU, TAMM41 / Fold change vs veh, TAMM41 / RFU, KIAA1704 /// LOC100996395 / Fold change vs veh, KIAA1704 /// LOC100996395 / RFU, ING1 / Fold change vs veh, ING1 / RFU, TRMT61B / Fold change vs veh, TRMT61B / RFU, FUBP3 / Fold change vs veh, FUBP3 / RFU, TP53 / Fold change vs veh, TP53 / RFU, TNKS2 / Fold change vs veh, TNKS2 / RFU, ZFP14 / Fold change vs veh, ZFP14 / RFU, ACTR2 / Fold change vs veh, ACTR2 / RFU, PPP3R1 / Fold change vs veh, PPP3R1 / RFU, PIK3R1 / Fold change vs veh, PIK3R1 / RFU, HNRNPA1 / Fold change vs veh, HNRNPA1 / RFU, RNF170 / Fold change vs veh, RNF170 / RFU, ZNF28 / Fold change vs veh, ZNF28 / RFU, RNGTT / Fold change vs veh, RNGTT / RFU, OGT / Fold change vs veh, OGT / RFU, BRD1 / Fold change vs veh, BRD1 / RFU, MARS / Fold change vs veh, MARS / RFU, ZNF655 / Fold change vs veh, ZNF655 / RFU, FAHD1 / Fold change vs veh, FAHD1 / RFU, BDP1 / Fold change vs veh, BDP1 / RFU, LRRCC1 / Fold change vs veh, LRRCC1 / RFU, ARID1A / Fold change vs veh, ARID1A / RFU, ZNF146 / Fold change vs veh, ZNF146 / RFU, ZNF330 / Fold change vs veh, ZNF330 / RFU, GPN3 / Fold change vs veh, GPN3 / RFU, C9orf123 / Fold change vs veh, C9orf123 / RFU, N4BP2L2 / Fold change vs veh, N4BP2L2 / RFU, ARFIP1 / Fold change vs veh, ARFIP1 / RFU, FAM179B / Fold change vs veh, FAM179B / RFU, BCL10 / Fold change vs veh, BCL10 / RFU, UHRF1BP1L / Fold change vs veh, UHRF1BP1L / RFU, BET1 / Fold change vs veh, BET1 / RFU, CNOT2 / Fold change vs veh, CNOT2 / RFU, ZNF268 / Fold change vs veh, ZNF268 / Fold change vs veh, ZNF507 / RFU, DGCR2 / Fold change vs veh, DGCR2 / RFU, WDSUB1 / Fold change vs veh, WDSUB1 / Fold change vs veh, HSP90B1 /// MIR3652 / RFU, ADSS / Fold change vs veh, ADSS / RFU, GK / Fold change vs veh, GK / RFU, ZNF148 / Fold change vs veh, ZNF148 / RFU, TAF9 / Fold change vs veh, TAF9 / RFU, SLC1A5 / Fold change vs veh, SLC1A5 / RFU, SLMO2 / Fold change vs veh, SLMO2 / RFU, ABCC4 / Fold change vs veh, ABCC4 / RFU, LOC101060439 /// RAP1B / Fold change vs veh, LOC101060439 /// RAP1B / RFU, RFX7 / Fold change vs veh, RFX7 / RFU, GTPBP10 / Fold change vs veh, GTPBP10 / RFU, CNEP1R1 / Fold change vs veh, CNEP1R1 / RFU, BIVM-ERCC5 /// ERCC5 / Fold change vs veh, BIVM-ERCC5 /// ERCC5 / RFU, ILF3 / Fold change vs veh, ILF3 / RFU 11762660_at / Fold change /veh 11762660_at / RFU VCAN (11757783_s_at) / Fold change /veh VCAN (11757783_s_at) / RFU DDX43 (11728927_at) / Fold change /veh DDX43 (11728927_at) / RFU KRT8 (11758188_x_at) / Fold change /veh KRT8 (11758188_x_at) / RFU NKD1 (11759106_at) / Fold change /veh NKD1 (11759106_at) / RFU SRD5A1 (11742802_a_at) / Fold change /veh SRD5A1 (11742802_a_at) / RFU TPSAB1 /// TPSB2 (11721975_s_at) / Fold change /veh TPSAB1 /// TPSB2 (11721975_s_at) / RFU GSTM3 (11746129_a_at) / Fold change /veh GSTM3 (11746129_a_at) / RFU IL23R (11737362_x_at) / Fold change /veh IL23R (11737362_x_at) / RFU TMEM51 (11727254_a_at) / Fold change /veh TMEM51 (11727254_a_at) / RFU PIWIL2 (11732686_x_at) / Fold change /veh PIWIL2 (11732686_x_at) / RFU ORM1 (11744905_x_at) / Fold change /veh ORM1 (11744905_x_at) / RFU CCDC152 (11743942_at) / Fold change /veh CCDC152 (11743942_at) / RFU ECM1 (11717891_a_at) / Fold change /veh ECM1 (11717891_a_at) / RFU IL23R (11748794_a_at) / Fold change /veh IL23R (11748794_a_at) / RFU TNFAIP8L3 (11732012_x_at) / Fold change /veh TNFAIP8L3 (11732012_x_at) / RFU MBOAT4 (11741988_at) / Fold change /veh MBOAT4 (11741988_at) / RFU 11764193_at / Fold change /veh 11764193_at / RFU TMEM53 (11763286_at) / Fold change /veh TMEM53 (11763286_at) / RFU MAGEB2 (11727129_at) / Fold change /veh MAGEB2 (11727129_at) / RFU TMEM200A (11744735_a_at) / Fold change /veh TMEM200A (11744735_a_at) / RFU CCDC152 (11751479_a_at) / Fold change /veh CCDC152 (11751479_a_at) / RFU FAM211A (11726209_a_at) / Fold change /veh FAM211A (11726209_a_at) / RFU RGS16 (11746705_a_at) / Fold change /veh RGS16 (11746705_a_at) / RFU VCAN (11755009_s_at) / Fold change /veh VCAN (11755009_s_at) / RFU RHOB (11743442_s_at) / Fold change /veh RHOB (11743442_s_at) / RFU RGS16 (11720943_a_at) / Fold change /veh RGS16 (11720943_a_at) / RFU RGS16 (11720944_at) / Fold change /veh RGS16 (11720944_at) / RFU, VPS4B / Fold change vs veh, VPS4B / RFU, CREB1 / Fold change vs veh, CREB1 / RFU, DNAJC13 / Fold change vs veh, DNAJC13 / RFU, GNAQ / Fold change vs veh, GNAQ / RFU, CDK5R1 / Fold change vs veh, CDK5R1 / RFU, ZRANB3 / Fold change vs veh, ZRANB3 / RFU, CUL4A / Fold change vs veh, CUL4A / RFU, CCNY / Fold change vs veh, CCNY / RFU, UFL1 / Fold change vs veh, UFL1 / RFU, COG3 / Fold change vs veh, COG3 / RFU, DIAPH2 / Fold change vs veh, DIAPH2 / RFU, SKA2 / Fold change vs veh, SKA2 / RFU, AFF3 / Fold change vs veh, AFF3 / RFU, LMF1 / Fold change vs veh, LMF1 / RFU, IPO11 / Fold change vs veh, IPO11 / RFU, DFFB / Fold change vs veh, DFFB / RFU, FOXP1 / Fold change vs veh, FOXP1 / RFU, CARD8 / Fold change vs veh, CARD8 / RFU, STRN3 / Fold change vs veh, STRN3 / RFU, ADK / Fold change vs veh, ADK / RFU, RASSF2 / Fold change vs veh, RASSF2 / RFU, WIPF1 / Fold change vs veh, WIPF1 / RFU, LARP1B / Fold change vs veh, LARP1B / RFU, RASA1 / Fold change vs veh, RASA1 / RFU, RB1 / Fold change vs veh, RB1 / RFU, PPFIA1 / Fold change vs veh, PPFIA1 / RFU, MAT2A / Fold change vs veh, MAT2A / RFU, CCT5 / Fold change vs veh, CCT5 / RFU, WDR92 / Fold change vs veh, WDR92 / RFU, CUX1 / Fold change vs veh, CUX1 / RFU, TTC7A / Fold change vs veh, TTC7A / RFU, TMEM135 / Fold change vs veh, TMEM135 / RFU, DEPTOR / Fold change vs veh, DEPTOR / RFU, CPM / Fold change vs veh, CPM / RFU, DNAJB6 / Fold change vs veh, DNAJB6 / RFU, CACNA2D3 / Fold change vs veh, CACNA2D3 / RFU, DTX4 / Fold change vs veh, DTX4 / RFU, TFCP2 / Fold change vs veh, TFCP2 / RFU, GMCL1 /// GMCL1P1 / Fold change vs veh, GMCL1 /// GMCL1P1 / RFU, AEBP2 / Fold change vs veh, AEBP2 / RFU, SNHG1 /// SNORD22 /// SNORD25 /// SNORD26 /// SNORD27 /// SNORD28 /// SNORD29 /// SNORD31 / Fold change vs veh, SNHG1 /// SNORD22 /// SNORD25 /// SNORD26 /// SNORD27 /// SNORD28 /// SNORD29 /// SNORD31 / Fold change (Aza/veh), C12orf56 (ProbeSet 11735607_a_at) / Fold change (ACY-1035/veh), C12orf56 (ProbeSet 11735607_a_at) / Fold change (Aza/veh), FGFR1OP (ProbeSet 11751329_s_at) / Fold change (ACY-1035/veh), FGFR1OP (ProbeSet 11751329_s_at) / Fold change (Aza/veh), VPS36 (ProbeSet 11739960_a_at) / Fold change (ACY-1035/veh), VPS36 (ProbeSet 11739960_a_at) / RFU SYPL1 (11715823_x_at) / Fold change /veh SYPL1 (11715823_x_at) / RFU IGFBP7 (11715501_s_at) / Fold change /veh IGFBP7 (11715501_s_at) / RFU REEP3 (11722064_at) / Fold change /veh REEP3 (11722064_at) / RFU IGLL1 (11728026_x_at) / Fold change /veh IGLL1 (11728026_x_at): dose or concentration left out as unconfirmed
# Settings: ProbeSet 11752001_a_at; LIST D
structure (smiles),measurement,value
Nc1ncn([C@@H]2O[C@H](CO)[C@@H](O)[C@H]2O)c(=O)n1 [azacitidine],"Fold change vs veh, CUL4A",0.81
